In PubChem BioAssay AID256 (DTP/NCI, 2004):
Toxic doses and inconclusive results are not listed.

System: CD2F1 mice, L1210 leukemia ip, survival T/C
Assay: NCI In Vivo Anticancer Drug Screen. Data for tumor model L1210 Leukemia (intraperitoneal) in CD2F1 (CDF1) mice
Conditions: endpoint: mean survival time, higher = longer survival
In short: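 Compound-dosed mice with transplantable tumor versus matched vehicle controls; endpoint ratio T/C reported.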

## O=c1cn[nH]c2ccc(Br)cc12
dose: 100.0 mg/kg/injection, schedule: Q01DX001 (ip), vehicle: other
  T/C: 97 % of control
dose: 200.0 mg/kg/injection, schedule: Q01DX001 (ip), vehicle: other
  T/C: 102 % of control
dose: 400.0 mg/kg/injection, schedule: Q01DX001 (ip), vehicle: other
  T/C: 91 % of control

## N#CSCN1C(=O)C2CC=CCC2C1=O (stereo not given)
dose: 6.25 mg/kg/injection, schedule: Q04DX003 (ip), vehicle: saline with Tween-80
  T/C: 103 % of control
dose: 12.5 mg/kg/injection, schedule: Q04DX003 (ip), vehicle: saline with Tween-80
  T/C: 101 % of control
